Columns and labels:
[1] = system: Escherichia coli strain WP2uvrA(pKM101); experiment: Ames plate assay, WP2uvrA(pKM101)
Description: (§1) Certain compounds of the invention were tested for their potential to induce gene mutations in bacterial strains of Salmonella typhimurium (strains TA1535, TA1537, TA98, TA100) and Escherichia coli (strain WP2uvrA(pKM101)) in a bacterial mutation assay in the absence and presence of metabolite activation (rat S9-mix). Compounds are tested at the following dose levels: 50, 150, 500, or 1500 μg/plate.
(§2) Vehicle control treatment is the vehicle used to prepare the test compound formulation diluted to the same extent as the test compound solution. Positive controls using known mutagens are included for each strain with and without rat S9 mix. Four plates are used for the vehicle control and two replicate plates per dose per strain for the treated groups and for each positive control. At the end of incubation the number of revertant colonies per plate are recorded and mean values calculated for each vehicle control, positive control and concentration of test compound used. Results are also expressed as a ratio of the mean values to the mean concurrent vehicle control value (i.e. fold increase).

[2] = system: Delayed type hypersensitivity (DTH) reaction; experiment: Delayed type hypersensitivity in mice (KLH, ear thickness); assay type: in vivo
From the text: The Delayed type hypersensitivity (DTH) reaction is observed when subjects are immunized with an antigen, and then subsequently challenged with the same antigen to induce a localized inflammation. The model can be inhibited by drugs affecting a range of immune and inflammatory mechanisms. In this instance, a DTH reaction is induced in mice using Keyhole Limpet Hemocyanin (KLH), measuring inflammation in the ear pinna. Keyhole Limpet Hemocyanin (KLH; Sigma, catalogue number H7017) preparation: […] Aliquots were stored at −20° C. For the first immunization (day 0) the KLH stock solution (10 mg/ml) was diluted to 0.5 mg/ml with PBS (1:20). Then a 1:1 mixture with Complete Freund's Adjuvant (CFA; Sigma catalogue number 5881) was prepared (final KLH concentration 0.25 mg/ml). For the second immunization (day 5) the KLH stock solution was diluted to 1 mg/ml with 0.9% NaCl (1:10). Mice (Balb/c ˜9 weeks of age) were immunized with 2×100 μl of a 1:1 emulsion of KLH in CFA (25 μg KLH/site) injected subcutaneously into the right and left flank. On day 5 post-injection, mice received a challenge of 10 μg KLH (in 10 μl physiological saline), injected intradermally into the right ear. On day 5, 6 and 7 the ear thickness was measured with a caliper. Measurements were performed one hour after compound administration in the morning. Compound CZC1 corresponding to example 34 of the present invention was dosed once daily orally (p.o.) from day 0 to day 7 (Table 10). Vehicle: 0.5% carboxymethylcellulose (CMC). Doses: 3, 10 and 30 mg/kg. Cyclosporine A (Calbiochem) was dosed twice daily orally (p.o., 8 am and 4 pm from day 0 to day 7). Vehicle: 5% DMSO, 0.5 CMC. Dose: 25 mg/kg. Control treatment: 5% DMSO, 0.5% CMC administered p.o. [table]

[3] = system: Salmonella typhimurium strain TA1535; experiment: Ames plate assay, TA1535
Description: as §1, §2

[4] = system: Akt serine-473 phosphorylation; experiment: In vitro Phospho-Akt cellular assay (pAkt S473) in HEK293T/17 cells; assay type: cell-based; settings: Homo sapiens, 2 hours
From the text: Activation of mTOR signaling results in phosphorylation of several downstream targets. In cells, mTOR exists in two different protein complexes. The mTOR Complex-1 (mTORC1) phosphorylates and activates S6 Kinase 1 (S6K1) and S6 Kinase 2 (S6K2) (also known as p70S6K) which then phosphorylate S6 Ribosomal Protein (S6RP) (also known as RPS6)3. S6RP is phosphorylated on serine 235, serine 236, serine 240 and serine 244 by both pS6K1 and pS6K2. The mTOR Complex-2 (mTORC2) phosphorylates AKT on serine 473 which activates the AKT signaling pathway.
The assay measures a test compound's inhibition of S6RP serine-240/244 phosphorylation and inhibition of Akt serine-473 phosphorylation in human embryonic kidney derived HEK293T/17 cells (ATCC CRL-11268).
The HEK293T/17 cell line is maintained in DMEM media (Invitrogen catalogue number 41965-039) supplemented with 10% FCS at 37° C. in a 5% CO2 humidified incubator.
Cells are seeded in 96-well plates at 40,000 cells/well (pS6RP S240/244 assay) or 80,000 cells/well (pAkt S473 assay) in 90 μl growth media (DMEM, 2% FCS). Plates are incubated for 1 hour in a humidified incubator to allow the cells to adhere. Cells are treated with 8 concentrations of test compounds or DMSO alone for controls (final DMSO concentration 0.1%) and incubated at 37° C. for 2 hours. Then 20 μl of 5× concentrated lysis buffer (750 mM NaCl, 100 mM Tris pH7.4, 5 mM ADTA, 5 mM EGTA, 5% Triton X-100) is added, plates are sealed and incubated for 15 minutes at 4° C. with gentle shaking. After cell lysis, 25 μl cell lysate is transferred to a MesoScale plate coated with an antibody to pS6RP Ser240/244 (MesoScale Discovery K150DGD-3) or an antibody to pAkt Ser 473 (MesoScale Discovery K151DGD-3). Plates have been blocked before by incubation with 150 μl MesoScale Discovery Blocking Solution-A for 1 hour at room temperature followed by washing with 150 μl 1× Tris wash buffer per well. After the transfer of the cell lysate to the MSD plate, the pS6RP (or pAkt) protein is captured on the coated antibody by incubation at room temperature for 1 hour with gentle shaking. After the capture step the plate is washed three times with 150 μl of 1× Tris wash buffer per well. Then 25 μl detection antibody conjugated with a Sulfo-Tag is added and incubated for 1 hour at room temperature with gentle shaking. Subsequently the antibody solution is removed and the plate is washed 3 times with 150 μl×Tris wash buffer per well and 150 μl Read buffer is added. The plates are analysed on a MSD 2400 Plate Reader (MesoScale Discovery). Data analysis is performed using nonlinear regression for a sigmoidal dose-response with a variable slope.

[5] = system: Salmonella typhimurium strain TA98; experiment: Ames plate assay, TA98
Description: as §1, §2

CCOC(=O)N1Cc2nc(-c3ccc(NC(=O)NC4CC4)cc3)nc(N3CCOC[C@@H]3C)c2C1 [Example 34, (S)-ethyl 2-(4-(3-cyclopropylureido)phenyl)-4-(3-methylmorpholino)-5H-pyrrolo[3,4-d]pyrimidine-6(7H)-carboxylate]
−: Ames plate assay WP2uvrA (pKM101) +S9 ([1]; +S9, 50 μg/Plate) | Ames plate assay WP2uvrA (pKM101) +S9 ([1]; +S9, 150 μg/Plate) | Ames plate assay WP2uvrA (pKM101) +S9 ([1]; +S9, 500 μg/Plate) | Ames plate assay WP2uvrA (pKM101) +S9 ([1]; +S9, 1500 μg/Plate) | Ames plate assay WP2uvrA (pKM101) −S9 ([1]; −S9, 50 μg/Plate) | Ames plate assay WP2uvrA (pKM101) −S9 ([1]; −S9, 150 μg/Plate) | Ames plate assay WP2uvrA (pKM101) −S9 ([1]; −S9, 500 μg/Plate) | Ames plate assay WP2uvrA (pKM101) −S9 ([1]; −S9, 1500 μg/Plate) | Ames plate assay TA1535 +S9 ([3]; TA1535, +S9, 50 μg/Plate) | Ames plate assay TA1535 +S9 ([3]; TA1535, +S9, 150 μg/Plate) | Ames plate assay TA1535 +S9 ([3]; TA1535, +S9, 500 μg/Plate) | Ames plate assay TA1535 +S9 ([3]; TA1535, +S9, 1500 μg/Plate) | Ames plate assay TA1535 −S9 ([3]; TA1535, −S9, 50 μg/Plate) | Ames plate assay TA1535 −S9 ([3]; TA1535, −S9, 150 μg/Plate) | Ames plate assay TA1535 −S9 ([3]; TA1535, −S9, 500 μg/Plate) | Ames plate assay TA1535 −S9 ([3]; TA1535, −S9, 1500 μg/Plate) | Ames plate assay TA98 +S9 ([5]; TA98, +S9, 50 μg/Plate) | Ames plate assay TA98 +S9 ([5]; TA98, +S9, 150 μg/Plate) | Ames plate assay TA98 +S9 ([5]; TA98, +S9, 500 μg/Plate) | Ames plate assay TA98 +S9 ([5]; TA98, +S9, 1500 μg/Plate) | Ames plate assay TA98 −S9 ([5]; TA98, −S9, 50 μg/Plate) | Ames plate assay TA98 −S9 ([5]; TA98, −S9, 150 μg/Plate) | Ames plate assay TA98 −S9 ([5]; TA98, −S9, 500 μg/Plate) | Ames plate assay TA98 −S9 ([5]; TA98, −S9, 1500 μg/Plate)
21 nM: IC50 [4]
significantly reduced: increase in ear thickness ([2]; 3 mg/kg p.o. once daily day 0 to day 7, 24 hours post-challenge) | increase in ear thickness ([2]; 10 mg/kg p.o. once daily day 0 to day 7, 24 hours post-challenge) | increase in ear thickness ([2]; 30 mg/kg p.o. once daily day 0 to day 7, 24 hours post-challenge)

CCOC(=O)N1Cc2nc(-c3ccc(NC(=O)NC4CC4)cc3F)nc(N3CCOC[C@H]3C)c2C1 [Example 179, (R)-ethyl 2-(4-(3-cyclopropylureido)-2-fluorophenyl)-4-(3-methylmorpholino)-5H-pyrrolo[3,4-d]pyrimidine-6(7H)-carboxylate]
31 nM: IC50 [4]
